According to ChEMBL document CHEMBL5465560, “Selectivity Literature for EUbOPEN Chemogenomic Library” (2024):

How the values were obtained:
[1] = target: Serine/threonine-protein kinase Nek4 (Homo sapiens) (UniProt P51957); experiment: Selectivity interaction (KinomeScan (DiscoverX)) EUB0000229b NEK4; conditions: at 10 µM
[2] = target: Mitogen-activated protein kinase 10 (Homo sapiens, UniProt P53779); experiment: Selectivity interaction (KinomeScan (DiscoverX)) EUB0000229b MAPK10; conditions: at 10 µM
Mitogen-activated protein kinase 10, sequence (P53779 whole entry): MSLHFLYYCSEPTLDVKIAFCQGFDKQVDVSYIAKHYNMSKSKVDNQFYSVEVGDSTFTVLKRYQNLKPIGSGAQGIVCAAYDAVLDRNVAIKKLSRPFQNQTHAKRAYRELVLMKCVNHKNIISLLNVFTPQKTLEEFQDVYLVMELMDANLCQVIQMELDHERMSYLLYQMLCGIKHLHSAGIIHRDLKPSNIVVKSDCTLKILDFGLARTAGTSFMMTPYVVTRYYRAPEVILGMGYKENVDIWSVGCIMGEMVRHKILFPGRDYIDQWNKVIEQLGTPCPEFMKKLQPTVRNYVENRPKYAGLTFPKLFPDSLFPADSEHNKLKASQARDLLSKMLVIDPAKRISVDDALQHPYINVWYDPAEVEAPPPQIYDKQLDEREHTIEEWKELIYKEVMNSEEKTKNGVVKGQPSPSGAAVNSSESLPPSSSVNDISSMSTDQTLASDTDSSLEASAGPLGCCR

[3] = target: T1, Serine/threonine-protein kinase TBK1 (Homo sapiens) (UniProt Q9UHD2); experiment: Selectivity interaction (KinomeScan (DiscoverX)) EUB0000092b TBK1; conditions: at 10 µM
T1 sequence (whole entry): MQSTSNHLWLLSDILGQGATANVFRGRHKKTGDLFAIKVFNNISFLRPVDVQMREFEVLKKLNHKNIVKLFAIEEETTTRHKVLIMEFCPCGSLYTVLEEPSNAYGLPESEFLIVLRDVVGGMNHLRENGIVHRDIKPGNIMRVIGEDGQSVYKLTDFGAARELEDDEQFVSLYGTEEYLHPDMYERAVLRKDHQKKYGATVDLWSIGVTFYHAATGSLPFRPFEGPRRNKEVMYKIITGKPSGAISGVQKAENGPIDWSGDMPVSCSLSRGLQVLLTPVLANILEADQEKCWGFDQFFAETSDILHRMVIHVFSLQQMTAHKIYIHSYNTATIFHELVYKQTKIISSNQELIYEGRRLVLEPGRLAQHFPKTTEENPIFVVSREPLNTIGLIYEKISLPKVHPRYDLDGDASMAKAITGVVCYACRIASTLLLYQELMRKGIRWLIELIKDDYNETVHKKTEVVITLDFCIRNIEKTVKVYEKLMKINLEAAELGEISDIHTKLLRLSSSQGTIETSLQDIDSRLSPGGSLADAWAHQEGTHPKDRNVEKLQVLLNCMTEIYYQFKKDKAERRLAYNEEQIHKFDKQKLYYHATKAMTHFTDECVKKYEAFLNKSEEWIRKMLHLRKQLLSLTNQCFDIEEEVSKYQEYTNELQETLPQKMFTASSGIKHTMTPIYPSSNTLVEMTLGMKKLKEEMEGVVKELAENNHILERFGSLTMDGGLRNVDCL

[4] = target: Beta-3 adrenergic receptor (Homo sapiens) (UniProt P13945); experiment: Selectivity interaction (GPCR panel (PDSP screen)) EUB0001079a ADRB3; conditions: at 10 µM
Beta-3 adrenergic receptor (Homo sapiens), sequence (P13945 whole entry, looked up): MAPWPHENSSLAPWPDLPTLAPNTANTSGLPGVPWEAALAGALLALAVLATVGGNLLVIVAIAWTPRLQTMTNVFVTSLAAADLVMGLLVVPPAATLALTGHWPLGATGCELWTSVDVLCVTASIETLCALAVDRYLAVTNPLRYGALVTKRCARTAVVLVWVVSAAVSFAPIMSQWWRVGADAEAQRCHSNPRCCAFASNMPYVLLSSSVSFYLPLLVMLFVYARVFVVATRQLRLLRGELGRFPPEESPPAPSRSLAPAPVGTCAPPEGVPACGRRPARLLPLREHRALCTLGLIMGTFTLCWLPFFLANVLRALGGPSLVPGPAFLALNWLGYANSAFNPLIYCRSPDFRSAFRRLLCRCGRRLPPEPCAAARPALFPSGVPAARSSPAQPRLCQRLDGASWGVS

[5] = target: T2, Gamma-aminobutyric acid receptor subunit alpha-1 (Homo sapiens) (UniProt P14867); experiment: Selectivity interaction (GPCR panel (PDSP screen)) EUB0001079a GABRA1; conditions: at 10 µM
T2 sequence (whole entry): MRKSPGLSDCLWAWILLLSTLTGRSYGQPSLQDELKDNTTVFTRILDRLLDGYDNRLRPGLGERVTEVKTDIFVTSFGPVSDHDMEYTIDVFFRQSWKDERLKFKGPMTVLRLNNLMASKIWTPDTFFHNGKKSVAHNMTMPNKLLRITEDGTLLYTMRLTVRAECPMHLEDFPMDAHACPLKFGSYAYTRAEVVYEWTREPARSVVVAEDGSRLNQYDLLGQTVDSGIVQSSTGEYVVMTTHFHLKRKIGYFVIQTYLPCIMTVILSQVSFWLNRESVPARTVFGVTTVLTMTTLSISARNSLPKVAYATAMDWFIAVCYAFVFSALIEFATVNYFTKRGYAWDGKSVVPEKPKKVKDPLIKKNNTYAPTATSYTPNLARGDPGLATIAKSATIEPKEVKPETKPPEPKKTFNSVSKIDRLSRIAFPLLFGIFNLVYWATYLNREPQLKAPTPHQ

[6] = target: T3, Serine/threonine-protein kinase Nek5 (Homo sapiens) (UniProt Q6P3R8); experiment: Selectivity interaction (KinomeScan (DiscoverX)) EUB0000595a NEK5; conditions: at 10 µM
T3 sequence (whole entry): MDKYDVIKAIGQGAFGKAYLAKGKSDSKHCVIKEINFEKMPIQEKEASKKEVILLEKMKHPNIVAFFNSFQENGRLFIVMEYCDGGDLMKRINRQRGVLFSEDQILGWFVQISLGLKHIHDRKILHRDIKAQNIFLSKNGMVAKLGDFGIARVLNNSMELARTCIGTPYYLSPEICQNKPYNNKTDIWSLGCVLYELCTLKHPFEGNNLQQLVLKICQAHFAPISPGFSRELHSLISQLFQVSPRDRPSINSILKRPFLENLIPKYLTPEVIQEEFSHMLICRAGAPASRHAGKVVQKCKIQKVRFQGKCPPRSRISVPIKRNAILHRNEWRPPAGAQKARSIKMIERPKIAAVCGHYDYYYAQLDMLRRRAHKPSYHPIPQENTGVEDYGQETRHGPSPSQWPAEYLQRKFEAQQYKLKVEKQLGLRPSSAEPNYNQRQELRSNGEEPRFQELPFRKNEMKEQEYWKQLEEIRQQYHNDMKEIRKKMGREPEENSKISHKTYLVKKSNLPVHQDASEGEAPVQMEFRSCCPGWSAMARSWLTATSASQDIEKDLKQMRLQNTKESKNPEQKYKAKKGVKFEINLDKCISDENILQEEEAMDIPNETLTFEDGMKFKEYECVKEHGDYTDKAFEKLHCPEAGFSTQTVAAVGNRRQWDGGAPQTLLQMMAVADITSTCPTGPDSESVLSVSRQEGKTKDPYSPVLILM

[7] = target: Serine/threonine-protein kinase MRCK gamma (Homo sapiens) (UniProt Q6DT37); experiment: Selectivity interaction (KinomeScan (DiscoverX)) EUB0000618a CDC42BPG; conditions: at 10 µM
Serine/threonine-protein kinase MRCK gamma (Homo sapiens), sequence (Q6DT37 whole entry): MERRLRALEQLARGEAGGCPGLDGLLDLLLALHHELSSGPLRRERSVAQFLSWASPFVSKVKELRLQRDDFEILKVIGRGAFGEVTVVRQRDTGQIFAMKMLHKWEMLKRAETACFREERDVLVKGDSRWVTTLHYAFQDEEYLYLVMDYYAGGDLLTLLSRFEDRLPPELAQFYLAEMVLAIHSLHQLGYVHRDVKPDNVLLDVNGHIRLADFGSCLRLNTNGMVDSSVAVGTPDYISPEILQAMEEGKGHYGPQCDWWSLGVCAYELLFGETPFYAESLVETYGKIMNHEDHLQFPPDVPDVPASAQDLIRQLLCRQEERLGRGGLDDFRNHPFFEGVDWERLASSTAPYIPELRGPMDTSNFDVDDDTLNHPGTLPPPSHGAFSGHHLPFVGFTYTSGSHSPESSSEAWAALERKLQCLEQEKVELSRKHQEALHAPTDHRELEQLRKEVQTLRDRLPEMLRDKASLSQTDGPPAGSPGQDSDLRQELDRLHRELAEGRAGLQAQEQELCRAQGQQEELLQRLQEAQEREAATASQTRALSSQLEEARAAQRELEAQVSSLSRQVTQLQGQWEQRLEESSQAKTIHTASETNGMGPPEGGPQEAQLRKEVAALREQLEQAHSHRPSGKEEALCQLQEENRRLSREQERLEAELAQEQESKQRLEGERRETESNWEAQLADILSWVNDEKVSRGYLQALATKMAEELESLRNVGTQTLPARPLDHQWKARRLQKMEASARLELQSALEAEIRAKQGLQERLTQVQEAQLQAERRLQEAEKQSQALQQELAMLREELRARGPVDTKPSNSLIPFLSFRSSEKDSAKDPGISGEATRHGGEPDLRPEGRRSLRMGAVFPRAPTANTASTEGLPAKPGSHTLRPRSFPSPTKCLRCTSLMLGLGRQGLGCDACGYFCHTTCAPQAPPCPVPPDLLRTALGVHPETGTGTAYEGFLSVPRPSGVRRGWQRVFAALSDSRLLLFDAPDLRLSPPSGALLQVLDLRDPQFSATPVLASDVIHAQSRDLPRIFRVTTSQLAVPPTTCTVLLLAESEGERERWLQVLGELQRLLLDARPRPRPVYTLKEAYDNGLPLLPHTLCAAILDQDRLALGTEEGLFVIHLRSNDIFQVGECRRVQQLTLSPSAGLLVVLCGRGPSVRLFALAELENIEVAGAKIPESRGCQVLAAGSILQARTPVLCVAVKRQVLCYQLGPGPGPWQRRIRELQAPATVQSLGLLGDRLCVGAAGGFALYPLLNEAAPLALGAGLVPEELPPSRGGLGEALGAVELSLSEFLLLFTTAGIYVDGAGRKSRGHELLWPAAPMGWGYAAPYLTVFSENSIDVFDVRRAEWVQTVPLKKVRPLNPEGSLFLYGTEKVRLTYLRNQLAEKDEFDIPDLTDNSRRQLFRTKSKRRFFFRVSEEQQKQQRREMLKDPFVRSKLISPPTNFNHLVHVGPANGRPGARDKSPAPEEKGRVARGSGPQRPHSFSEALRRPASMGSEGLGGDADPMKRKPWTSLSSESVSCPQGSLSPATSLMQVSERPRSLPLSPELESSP

[8] = target: Serine/threonine-protein kinase tousled-like 2 (Homo sapiens) (UniProt Q86UE8); experiment: Selectivity interaction (Ambit KINOMEscan and KiNATiv profiling in Jurkat cells) EUB0000090b TLK2; assay type: cell-based; conditions: at 1 µM
Serine/threonine-protein kinase tousled-like 2 (Homo sapiens), sequence (Q86UE8 whole entry, looked up): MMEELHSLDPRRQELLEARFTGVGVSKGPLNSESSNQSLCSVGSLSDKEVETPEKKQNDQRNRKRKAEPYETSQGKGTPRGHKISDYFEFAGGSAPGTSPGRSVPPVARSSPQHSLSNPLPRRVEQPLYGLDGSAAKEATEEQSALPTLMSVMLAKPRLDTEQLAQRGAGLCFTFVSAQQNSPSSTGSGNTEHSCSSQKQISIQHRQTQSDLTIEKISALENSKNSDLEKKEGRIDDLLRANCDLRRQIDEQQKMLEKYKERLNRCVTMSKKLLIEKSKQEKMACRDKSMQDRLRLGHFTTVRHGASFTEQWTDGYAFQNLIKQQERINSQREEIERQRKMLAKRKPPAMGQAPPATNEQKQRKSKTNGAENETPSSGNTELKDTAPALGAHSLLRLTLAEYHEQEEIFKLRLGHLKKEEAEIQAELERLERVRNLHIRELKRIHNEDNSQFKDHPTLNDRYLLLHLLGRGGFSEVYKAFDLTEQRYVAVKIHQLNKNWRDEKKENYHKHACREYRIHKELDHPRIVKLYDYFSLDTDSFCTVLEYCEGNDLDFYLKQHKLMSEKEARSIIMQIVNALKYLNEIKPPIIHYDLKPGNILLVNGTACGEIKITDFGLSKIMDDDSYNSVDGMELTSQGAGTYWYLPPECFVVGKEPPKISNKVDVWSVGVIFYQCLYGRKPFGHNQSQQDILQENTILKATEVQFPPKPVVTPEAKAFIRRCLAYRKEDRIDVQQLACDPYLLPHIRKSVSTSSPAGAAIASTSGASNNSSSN

[9] = target: Serine/threonine-protein kinase NIM1 (Homo sapiens, UniProt Q8IY84); experiment: Selectivity interaction (KinomeScan (DiscoverX)) EUB0001619a NIM1K; conditions: at 1 µM
Serine/threonine-protein kinase NIM1, sequence (Q8IY84 whole entry): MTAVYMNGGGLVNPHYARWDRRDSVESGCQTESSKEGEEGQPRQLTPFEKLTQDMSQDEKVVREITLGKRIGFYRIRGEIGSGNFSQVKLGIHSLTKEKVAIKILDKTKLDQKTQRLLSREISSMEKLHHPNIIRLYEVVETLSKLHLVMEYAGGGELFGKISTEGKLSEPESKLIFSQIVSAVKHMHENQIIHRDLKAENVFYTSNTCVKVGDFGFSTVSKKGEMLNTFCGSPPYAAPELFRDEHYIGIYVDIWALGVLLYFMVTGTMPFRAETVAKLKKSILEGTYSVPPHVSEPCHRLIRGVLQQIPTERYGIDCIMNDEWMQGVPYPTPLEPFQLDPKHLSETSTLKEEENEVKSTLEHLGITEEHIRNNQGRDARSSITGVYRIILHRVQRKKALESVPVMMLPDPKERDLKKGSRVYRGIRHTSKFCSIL

Serine/threonine-protein kinase Nek4 (Homo sapiens), sequence (P51957 whole entry, looked up): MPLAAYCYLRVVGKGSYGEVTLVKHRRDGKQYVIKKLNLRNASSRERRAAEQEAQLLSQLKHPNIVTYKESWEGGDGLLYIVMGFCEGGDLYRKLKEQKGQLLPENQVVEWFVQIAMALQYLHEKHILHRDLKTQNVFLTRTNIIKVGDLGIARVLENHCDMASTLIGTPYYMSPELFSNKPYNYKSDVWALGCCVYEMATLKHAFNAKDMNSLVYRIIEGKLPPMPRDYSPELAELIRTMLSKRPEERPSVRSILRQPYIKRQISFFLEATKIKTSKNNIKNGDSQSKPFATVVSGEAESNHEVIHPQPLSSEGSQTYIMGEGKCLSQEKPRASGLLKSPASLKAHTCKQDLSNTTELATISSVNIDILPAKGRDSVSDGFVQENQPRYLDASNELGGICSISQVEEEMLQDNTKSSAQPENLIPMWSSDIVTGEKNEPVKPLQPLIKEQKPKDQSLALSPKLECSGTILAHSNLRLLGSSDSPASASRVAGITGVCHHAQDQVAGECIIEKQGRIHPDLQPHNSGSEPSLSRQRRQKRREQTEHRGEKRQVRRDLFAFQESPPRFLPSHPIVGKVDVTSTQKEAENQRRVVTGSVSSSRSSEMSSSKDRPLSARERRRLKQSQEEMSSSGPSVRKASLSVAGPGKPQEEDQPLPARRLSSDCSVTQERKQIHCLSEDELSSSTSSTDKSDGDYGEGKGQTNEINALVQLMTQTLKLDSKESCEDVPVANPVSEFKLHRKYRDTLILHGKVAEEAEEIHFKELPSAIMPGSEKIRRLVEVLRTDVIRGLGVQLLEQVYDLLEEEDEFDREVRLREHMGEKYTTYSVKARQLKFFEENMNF

COc1cc(N(C)c2ccnc3ccc(C(F)(F)F)cc23)cc(OC)c1OC
% binding [1]: 82%
% binding [2]: 88%

CCC(=O)N1CCN(c2ccc(-n3c(=O)ccc4cnc5ccc(-c6cnc7ccccc7c6)cc5c43)cc2C(F)(F)F)CC1
% of control [3]: 93%

Nc1cnc(N2CCc3cc(S(=O)(=O)Nc4c(F)cc(Cl)cc4F)cc(N4CCCC4=O)c32)nc1 [TP-020n]
% of inhibition [4]: -2.69%
% of inhibition [5]: -1.96%

COCC(=O)NC/C=C/c1ccc2ncnc(Nc3ccc(Oc4ccc(C)nc4)c(C)c3)c2c1 [CP-724714]
% of control [6]: 100%

O[C@H]1CC[C@H](Nc2ncc3nc(Nc4c(F)cc(F)cc4F)n([C@H]4CCOC4)c3n2)CC1
% of control [7]: 81%

CN(C)C/C=C/C(=O)Nc1ccc(C(=O)N2CCCC(Nc3ncc(Cl)c(-c4c[nH]c5ccccc45)n3)C2)cc1 (centres undefined)
% of control [8]: 93%

N#Cc1cccc(-c2c[nH]c3ncnc(N4CCOCC4)c23)c1
% of control [9]: 80%
